This note sets out measurements from patent US10501502B2, “Allophycocyanin alpha-subunit evolved labeling proteins (smURFPs)” (The Regents of the University of California, priority 2016, dated 2019).

For one series, the system named is HEK293A cells. In words: Fluorescence imaging of FPs in HEK293A cells with chromophore addition or HO-1 expression. It is filed as cell-based. An excerpt: smURFP codons were optimized for human cell expression, and the gene was created by GenScript. smURFP, TDsmURFP (created from mammalian-optimized smURFP), IFP1.4 (mammalian-optimized form^35), IFP2.0 (mammalian-optimized form^46), and iRFP713 (mammalian-optimized form^36) were PCR amplified using Phusion High-Fidelity DNA Polymerase (NEB) with primers containing 5′ HindIII and 3′ XhoI restriction enzyme sites. HindIII-HF and XhoI (NEB)-digested PCR fragments were gel purified (Zymoclean Gel DNA Recovery Kit) and were ligated (T4 DNA Ligase, Life Technologies) into a similarly digested pCDNA3-IRES-eGFP vector (bicistronic to express two FPs in the same cell). For creation of HO-1-expressing mammalian vec-tors, the Synechocystis HO-1 was used, and the codons were not optimized for mammalian expression. Synechocystis HO-1 was directly amplified from the pBAD vector using primers containing 5′ BsiWI and 3′ XbaI restriction enzyme sites. pCDNA3 smURFP, TDsmURFP, IFP1.4, IFP2.0, or iRFP713-IRES-eGFP vectors were digested with BsiWI and XbaI (NEB), dephosphorylated (SAP, Roche), gel purified (Zymoclean Gel DNA Recovery Kit), and ligated (T4 DNA Ligase, Life Technologies) with similarly digested, purified HO-1 PCR fragment. For creation of smURFP fusions, smURFP was PCR amplified using Phusion High-Fidelity DNA Polymerase (NEB) with primers containing 5′ AgeI and 3′ NotI restriction enzyme sites for N-terminal fusions or with primers containing 5′ AgeI and 3′ BspEI restriction enzyme sites for C-terminal fusions. mGeos2-VEL-ManII-N-10 (Addgene 57551) and Dronpa-PDHA1-N-10 (Addgene 57292) vectors were digested with AgeI and NotI (NEB) and mCherry-αTubulin-C-18 (Addgene 55148) and tdTomato-LaminB1-10 (Addgene 58107) were digested with AgeI and BspEI, dephosphorylated (SAP, Roche), gel purified (Zymoclean Gel DNA Recovery Kit), and ligated (T4 DNA Ligase, Life Technologies) with similarly digested, purified smURFP PCR fragment. HEK293A (Invitrogen, Life Technologies), HT1080 (ATCC), and PC3 (ATCC) cells were grown in Dulbecco's Modified Eagle's medium (DMEM, Corning), supplemented with 10% FBS (Atlanta Biologicals)+1×penicillin—streptomycin (Fisher Scientific), which is referred to as growth media, on poly-D-lysine-coated glass-bottom culture dishes (MatTek, No. P35G-0-14-C). The HEK cell line is listed in the ICLAC and NCBI biosample databases and is commonly misidentified as the HeLa cell line. For expression of exogenous fluorescent proteins, there is no problem if there is a contaminating cell line because no endogenous biology or therapeutic results are being determined. HEK293A cells were purchased from Invitrogen (Life Technologies), and all experiments are derived from the same expanded frozen stock without cell line authentication or mycoplasma detection. Cells were transfected using 2 μg of circular DNA+5 μl Lipofectamine 2000 (Life Technologies) in 2 ml Opti-MEM (Life Technologies) for 4-5 h, transfection media was discarded, and prewarmed growth media was added. Chromophores (5 mM in DMSO) were added at indicated concentrations to growth media, warmed for 10-15 min at 37° C., and added to cells. For multiple timepoints, incubations were staggered to maintain equivalent incubation. Prior to imaging, cells were washed 1×2 ml growth media, 2×2 ml imaging solution, and imaged in 2 ml imaging solution. Fluorescence imaging was performed on a Zeiss Axiovert 200M inverted microscope controlled by SlideBook software. FPs were imaged with the following settings: eGFP, EX/EM=495(10)/535(25) nm, tdTomato EX/EM=540(25)/595(50) nm; mCherry and mCardinal, EX/EM=580(20)/653(95) nm; smURFP and TDsmURFP, EX/EX=628(40)/680(30) nm; and IFP1.4, IFP2.0, and iRFP713, EX/EM=665(45)/725(50) nm. […]

Series [1] in a line: BV or BVMe2 concentration in plasma, in vitro. The settings on record: 10 μM, 37° C., up to 1,440 min.
Experimental: Whole blood was collected via abdominal aorta and placed in tubes with lithium heparin (BD, No. 365971) on ice. Tubes were centrifuged to remove red blood cells, and plasma was stored on ice for 30 min. Clarified plasma was combined and aliquoted into 9×70 μl aliquots and placed on ice. The following nine experiments were performed: starting plasma (1) and plasma+10 μM BV (2-5) or BVMe2(6-9) at time 0 at 4° C. and 15, 60, and 1,440 min at 37° C. Reactions were stopped by freezing at −80° C. Plasma samples were thawed, diluted 4× with cold 50% ACN, 48% water (H2O), and 2% acetic acid, and centrifuged for 14 min at 4° C. Reverse-phase high performance liquid chromatography (HPLC) was performed on an Agilent 1100 Series HPLC on a Phenomenex Luna C18(2) reverse-phase column 100 Å, 250 cm×21.20 mm I.D. 10 μm reverse-phase column (00G-4253-P0 AX), with a 21 min, 10-90% H2O:ACN (0.05% trifluoroacetic acid, TFA) gradient and a flow rate of 1 ml/min into a diode array detector and MSD-Ion Trap (Agilent LC/MSD trap XCT).
Series [2] is described as follows: FP purification and fluorescence characterization in vitro (spectra, extinction coefficient, quantum yield). The format is physicochemical. As to the method:
FP genes were expressed on a pBAD vector (Life Technologies) with a polyhistidine tag on the C terminus, cells were lysed with B-PER (Thermo Scientific), and purified using Ni-NTA (Qiagen) puri-fication. PCB (HO-1+PcyA) and BV (HO-1) incorporation in Escherichia coli was performed simultaneously during constitu-tively active FP expression. Extinction coefficient was determined by PCB or BV absorbance as described35,36 (Table 3, smURFP+BV and TDsmURFP+BV, and Table 2) or calculated for the apoproteins by determining the protein concentration by the BCA protein assay (Pierce), and a specific chromo-phore concentration was added (specified in the Purification of FP lacking chromophore and in vitro chromophore incorporation section) to get 1 and 2 chromophore species (Table 5, not including (Escherichia coli)). When FP chromophore (PCB or BV) was expressed in Escherichia coli, the PCB and BV Q band had absorbance that overlapped with detection of BCA or Bradford assay of 562 nm and 592 nm, respectively. We used the previously published protocols35,36, where there was no change of the BV absorbance at 390 nm when free in solution or attached to the FP. smURFP+BV denaturation with 1 M urea caused no change in the BV absorbance at 390 nm, but the Q band was reduced ˜20-fold. Therefore, the extinction coefficient of BV at 390 nm was used to calculate the concentration of holoprotein (FP+PCB or BV) concentration.
EX and EM spectra were obtained using SPEX Fluorolog fluorometer (Horiba). Absorbance spectra were obtained using UV-VIS Spectrophotometer Cary Eclipse (Varian) or UV-2700 (Shimadzu). Quantum yield was determined relative to Cy5. Incorporation rates of BV on 0.5 μM smURFP was performed by addition of smURFP to PBS alone or with 20% fetal bovine serum (FBS) and mixed by pipetting in a quartz cuvette. Chromophore was added last, mixed by pipetting, and fluorescence was recorded using SPEX Fluorolog fluorometer (Horiba). Photobleaching was characterized on bubbles of purified FP or Cy5 within mineral oil using light from a 150 W xenon arc lamp with 100% light through EX/EM=628(40)/680(30) nm for smURFP, TDsmURFP, and Cy5 or EX/EM=665 (45)/725 (50) nm for IFP 1.4 focused with a 40×, 1.2 numerical aperture C-Apochromat oil-immersion lens on a Zeiss Axiovert 200M inverted microscope. Photobleaching times were normalized to reflect an initial illumination intensity producing 1,000 photons per fluorescent molecule per second as previously described^37.
HO-1 was removed by digesting the pBAD vector (Life Technology) with MscI and PmeI (NEB). smURFP and TDsmURFP were expressed and purified as described above. No chromophore was present on smURFP and TDsmURFP (confirmed by UV, fluorescence imaging, and MS). For predominant fluorescent species+2 chromophores, a ten-fold excess of chromophore was added to smURFP and TDsmURFP. For predominant fluorescent species+1 chromophore, a quarter concentration of chromophore was added to smURFP and TDsmURFP. Chromophore was added in PBS+10% FBS at 37° C. overnight. smURFP+chromophore and TDsmURFP+chromophore were purified using NiNTA (Qiagen) to remove excess or noncovalently attached chromophore.

“Also recorded” adds a separate entry of the source.

`C=CC1=C(C)/C(=C/C2=NC(=C\c3[nH]c(/C=C4\NC(=O)C(C)=C4C=C)c(C)c3CCC(=O)O)/C(CCC(=O)O)=C2C)NC1=O` [BV, biliverdin, reference compound]: the “fluorescence with 25 μM BV at pH 6.4 relative to BV at pH 7.5” value in the series on HEK293A cells (3.5 h) is recorded as “increased fluorescence three-fold”. Also, the “fluorescence with protonated BV (pH 6.4) relative to BVMe2” value with HEK293A cells (pH 6.4) is given as “five-fold less”. In series [1], the “stability in plasma in vitro” value is recorded as “slower degradation; also recorded: significantly degraded”. Also, in series [2], the “quantum yield (QY)” value is 0.013%.
